The subject of data set [1] is hematopoietic stem and progenitor cells (HSPC), CFU-GM. Kind of data set: CFU-GM mobilization into peripheral blood, FancC −/− mice. It is filed as in vivo.
Data set [2] shares this test system. Kind of data set: CFU-GM mobilization into peripheral blood, BALB/c mice.
For data set [3], the system named is collagen-induced arthritis. Particulars: mice; cited from earlier work.
Data set [4] concerns pre-B-ALL cells. As to conditions: in vitro, cited from earlier work.
For data set [5], the system named is hematopoietic stem and progenitor cells (HSPC), CFU-GM. The data set can be described thus: CFU-GM mobilization into peripheral blood, +/+ C57B1 (wild type) mice. It is filed as in vivo. As to conditions: +/+ C57B1 controls; G-CSF alone regimen.

With “GROβ: recombinant human GROβ, chemokine, CXCR2 agonist”, the “CFU-GM mobilization in FancC −/− mice relative to +/+ controls” value in data set [1] (FancC −/− vs +/+ C57B1) is given as “lower in FancC −/− mice”. This molecule also came in with a CFU-GM/mL blood mobilized in data set [2] (blood harvested 15 min after GROβ (2.5 mg/kg SC) or GROβ+AMD, alone or on day 5 after G-CSF regimen) of 2562±396 CFU-GM/mL blood.

`c1cc(CN2CCCNCCNCCCNCC2)ccc1CN1CCCNCCNCCCNCC1` [AMD3100, 1,1′-[1,4-phenylene-bis(methylene)]-bis-1,4,8,11-tetraazacyclotetradecane] showed a CFU-GM/mL blood mobilized in data set [2] (blood harvested 60 min after AMD (5 mg/kg SC), alone or on day 5 after G-CSF regimen) of 991±121 CFU-GM/mL blood. Further, the “effect in collagen-induced arthritis models” value in data set [3] is “protective effects”. Also, in data set [4] (pre-B-ALL cells), the “effect on cytotoxic and antiproliferative effects of vincristine and dexamethasone” value is recorded as “enhanced”. The “SDF-1 induced chemotaxis of pre-B-ALL cells into bone marrow stroma layers” value in data set [4] is given as “blocked”.

B1: G-CSF: recombinant human Granulocyte-Colony Stimulating Factor (protein, UniProt P09919 31-207, looked up)
Granulocyte …: TPLGPASSLPQSFLLKCLEQVRKIQGDGAALQEKLVSECATYKLCHPEELVLLGHSLGIPWAPLSSCPSQALQLAGCLSQLHSGLFLYQGLLQALEGISPELGPTLDTLQLDVADFATTIWQQMEELGMAPALQPTQGAMPAFASAFQRRAGGVLVASHLQSFLEVSYRVLRHLAQP
For the molecule B1, the CFU-GM mobilized stood at 858±21 in data set [1] (FancC −/− mice, G-CSF alone regimen) and 1451±80 in data set [5]. Further, the “mobilization lower in FancC −/− mice compared to +/+ controls” value in data set [1] (FancC −/− vs +/+ C57B1) is on record as 45%. Also, in data set [2] (G-CSF alone 100 ug/kg/day, bid, SC×4 days), the CFU-GM/mL blood mobilized is 4362±996 CFU-GM/mL blood.

The record behind these values is patent US20100178271A1, “Combination Therapy” (GENZYME CORPORATION, priority 2006, published 2010).
